Results taken from patent publication US11384054B2, “Crystalline form of ivacaftor and a process for preparing the same” (ScinoPharm Taiwan, Ltd., priority 2020, dated 2022).
In brackets after ≈: the same amount, converted by molar mass. Read-outs that look alike come from different tables or passages of the source.

Assay: Solubility test of ivacaftor in solvents and acetone/water mixtures at 25° C.
Type: physicochemical
Details: organic solvent or mixture
Description: “Solvent” refers to a liquid substance capable of dissolving ivacaftor at about 50° C. to about 60° C. The term “anti-solvent” refers to a liquid substance which is not capable of dissolving ivacaftor at about 20° C. to about 30° C. More particularly, solvents and anti-solvents suitable for crystalline forms of ivacaftor are selected by solubility test, such as the Tables 1A, […], and 1C below, taking into consideration of advantages provided by the convenience and efficiency of process operation, the use of more environmentally friendly solvents, mild crystallization conditions, and others.

solubility (N,N-dimethylformamide, N,N-dimethylformamide, 25° C., read-out: Solubility): 109 mg/mL (≈ 277 mM)
solubility (acetone, Acetone, 25° C., read-out: Solubility): 27.9 mg/mL (≈ 71 mM)
solubility (acetone/water, 0% water in acetone, 25° C., read-out: Solubility in acetone/water): 27.9 mg/mL (≈ 71 mM)
solubility (acetone/water, 2% water in acetone, 25° C., read-out: Solubility in acetone/water): 27.9 mg/mL (≈ 71 mM)
solubility (acetone/water, 5% water in acetone, 25° C., read-out: Solubility in acetone/water): 41.4 mg/mL (≈ 106 mM)
solubility (acetone/water, 8% water in acetone, 25° C. (Table 1C), read-out: Solubility in acetone/water): 41.2 mg/mL (≈ 105 mM)
solubility (acetone/water, 10% water in acetone, 25° C., read-out: Solubility in acetone/water): 47.1 mg/mL (≈ 120 mM)
solubility (acetone/water, 15% water in acetone, 25° C., read-out: Solubility in acetone/water): 43.3 mg/mL (≈ 110 mM)
solubility (acetone/water, 30% water in acetone, 25° C., read-out: Solubility in acetone/water): 11 mg/mL (≈ 28 mM)
solubility (acetone/water, 50% water in acetone, 25° C., read-out: Solubility in acetone/water): 0.34 mg/mL (≈ 0.866 mM)
solubility (acetonitrile, Acetonitrile, 25° C., read-out: Solubility): 1.78 mg/mL (≈ 4.54 mM)
solubility (cyclohexane, Cyclohexane, 25° C., read-out: Solubility): 0.34 mg/mL (≈ 0.866 mM)
solubility (dimethyl sulfoxide, Dimethyl sulfoxide, 25° C., read-out: Solubility): 375 mg/mL (≈ 955 mM)
solubility (ethanol, Ethanol, 25° C., read-out: Solubility): 4.5 mg/mL (≈ 11.5 mM)
solubility (ethyl acetate, Ethyl acetate, 25° C., read-out: Solubility): 16.9 mg/mL (≈ 43.1 mM)
solubility (isopropanol, Isopropanol, 25° C., read-out: Solubility): 2.87 mg/mL (≈ 7.31 mM)
solubility (methanol, Methanol, 25° C., read-out: Solubility): 1.98 mg/mL (≈ 5.04 mM)
solubility (methyl ethyl ketone, Methyl ethyl ketone, 25° C., read-out: Solubility): 44.7 mg/mL (≈ 114 mM)
solubility (n-heptane, n-Heptane, 25° C., read-out: Solubility): 0.62 mg/mL (≈ 1.58 mM)
solubility (tetrahydrofuran, Tetrahydrofuran, 25° C., read-out: Solubility): 26.6 mg/mL (≈ 67.6 mM)
SMILES: CC(C)(C)c1cc(C(C)(C)C)c(NC(=O)c2c[nH]c3ccccc3c2=O)cc1O [ivacaftor]
